# Test results published in patent US20240166702A1, “COMPOSITIONS AND METHODS FOR TREATING BREAST CANCER” (Arizona Board of Regents on Behalf of The University of …, priority 2021, published 2024).
# Legend:
# WAP-TGFα tumors [1] = assay: NanoString analysis of WAP-TGFα tumors (PanCancer IO 360 Panel); type: in vivo, mouse; settings: WAP-TGFα tumors, found by NanoString
# Description: (§1) A. Tumors (n=6 each treatment) from WAP-TGF mice as described in FIG. 1 were embedded and analyzed by NanoString. […] C. Tumors were dissected, lysed, and analyzed for apoptosis by probing for cleaved PARP and PDL1 expression.
# C. WAP-TGFα tumors treated with either SNX1.3 or cPTD4 were analyzed for NK cells using an anti-NKp46 antibody. Inset is 20×.
# (§2) Due to the increased leukocyte infiltration identified by histology of cSNX1.3-treated WAP-TGFα mice, NanoString analysis was performed using a panel that identifies alterations in immune regulators through localized analysis of transcript expression (PanCancer IO 360 Panel). […] These include several immune/inflammatory genes (such as CD2, TLR, CD28, H2-M3, Ly6C1, cytokines, and chemokines) as well as genes that could impact the metastatic potential of the microenvironment (including collagen 11A1 and MM P12). NanoString bioinformatics analysis further identified that these changes could be due to an increase in Cytotoxic T lymphocytes (CTLs) in cSNX1.3-treated samples compared to PTD4 (FIG. 8B). […] Therefore, tumor lysates were prepared and evaluated for apoptosis and a loss of the negative immune checkpoint receptor PDL1 (FIG. 8C). […] These changes could indicate an alteration from an immune-suppressive to an immune-surveilling microenvironment.
# BT20 cells [2] = type: cell-based, human
# Description: (§3) B. MDA-MD-468 cells were transduced with an IPTG inducible shEGFR targeted against the 3′ UTR of EGFR. These cells were incubated with IPTG for the indicated number of days and lysates were generated to confirm knock down of EGFR. C. In tandem with B., cells were plated and incubated +/−IPTG for 2 days prior to drug treatment. […] After 5 days of IPTG and 3 days of peptide treatment viability was measured using an MTT assay.
# To investigate rt-EGFR, the role of the Sorting Nexins to regulate EGFR trafficking to the lysosome for degradation was investigated. To determine if SNX1 domains could be therapeutically mimicked, three SNX1-based peptides were synthesized, each of which was generated in tandem with a Cell Penetrating Peptide domain (PTD-4) to allow for intracellular penetration^19 (SNX1.1, 1.2 and 1.3, FIG. 2A). The ability of each peptide to reduce cell survival in the triple negative breast cancer cell line BT20 was evaluated.
# (§4) EGFR activity is known to promote the activity of other RTKs, including those in the EGFR family (HER2, HER3 and HER4) and the c-Met receptor (Puri and Salgia 2008; Linklater et al. 2016). Therefore, the ability of SNX1.3 to inhibit 2D migration was next evaluated, both in response to EGF as well as other migration-inducing ligands. […] Cells were plated on plastic and allowed to migrate into an artificial wound over 12 hours. […] To determine if this inhibitory effect was restricted to EGF-induced migration, the ability of SNX1.3 to impact neuregulin (NRG1) was also tested and hepatic growth factor (HGF)-induced migration. NRG is the ligand for HER3 and HER4, and HGF the ligand for the c-Met receptor, both of which are receptor tyrosine kinases. In addition, soluble hyaluronic acid (HA)-induced migration, the ligand for CD44, was also tested [a non-kinase membrane receptor that induces migration (Louderbough, Lopez, and Schroeder 2010)]. […] Note that all receptors undergo endocytosis, with the RTKs primarily undergoing clathrin-dependent endocytosis, while CD44 endocytosis is clathrin-independent (Dutta and Donaldson 2015).
# WAP-TGFα tumors [3] = assay: Histology and protein lysate analysis of treated WAP-TGFα tumors; type: in vivo, mouse
# From the text: Mice were bred continuously to induce transgene expression and palpated weekly for tumor formation. […] A. Changes in tumor size from entry into study until end of study are shown for each individual tumor, (*) indicate tumors that entered the study at size greater than 500 mm^3, all other tumors entered the study at ˜100 mm^3. B. a Kaplan-Meier survival curve was generated showing when mice were sacrificed by either reaching tumor burden (2000 mm^3) or the end of the study (p=0.0002). C. Upon sacrifice tumors were harvested and fixed in 10% formalin and embedded in paraffin. Slides were stained with hematoxylin and eosin and imaged at 20×. D. Protein lysates were generated from tumors upon sacrifice and probed for the indicated proteins.
# as §1
# At the end of the study, mice were sacrificed and tissues were collected and fixed in 10% buffered formalin or homogenized in tissue lysis buffer. Tissues were sectioned and evaluated for changes to tissue morphology in response to peptide treatment (FIG. 3C). […] Representative tumors from the PARP-cleavage positive (cSNX1.3-treated) and negative (cPTD4-treated) are shown (FIG. 3C).
# as §2
# BT20 cells [4] = assay: 2D cell migration into an artificial wound, BT20 cells; type: cell-based, human
# Description: Area migrated was measured with ImageJ.
# as §4
# MDA-MB-468 cells = type: cell-based, human; settings: MDA-MB-468, 3 days, MTT assay
# Description: A. Peptide sequence alignment of modified and stabilized peptides (−) indicates conserved residues, (/) indicates a deleted residue. Modified residues used for staples are (S)-2-(((9H-flouren-9-yl) methoxy) caronylamino)-2-methyl-hept-6-enoic acid (5) and (R)-2-(((9H-flouren-9-yl) methoxy) caronylamino)-2-methyl-dec-9-enoic acid (8). PTD4=Protein Transduction Domain. Ac=acetylation of 5′ end and NH2=amidation of 3′ end. B. MDA-MB-468 cells were treated with 10 μM of the indicated peptide for 3 days. Cell viability was measured using an MTT assay. Vehicle control represents 100%. C. A predicted peptide structure of SNX1.3 was generated using SWISSMODEL with negative (blue) and positive (red) residues highlighted.
# as §3
# Predicted peptide structure including negatively (blue) and positively (red) charged residues was used to guide the modifications (FIG. 2C).
# MCF10A cells = type: cell-based
Compound,secretion of IL33 (WAP-TGFα tumors [1]),growth of BT20 cells (BT20 cells [2]; first screen of SNX1-based peptides),"impact on viability via MTT (BT20 cells [2]; in less than 24 hours, data not shown)",infiltration of cytotoxic T lymphocytes and neutrophils in tumors (WAP-TGFα tumors [3]; compared to control mice),overall PDL1 expression in tumors (WAP-TGFα tumors [3]; tumor lysates),"soluble hyaluronic acid (HA)-induced migration (CD44) (BT20 cells [4]; BT20, 12 hours, ligand for CD44)","neuregulin (NRG1) induced migration (BT20 cells [4]; BT20, 12 hours, ligand for HER3 and HER4)","hepatic growth factor (HGF)-induced migration (BT20 cells [4]; BT20, 12 hours, ligand for c-Met receptor)","EGF induced migration (BT20 cells [4]; BT20 on plastic, 12 hours)","inhibition of cell survival, compared with Sapitinib (BT20 cells [2]; BT20, 3 days, MTT assay)","inhibition of cell survival, compared with Sapitinib (MDA-MB-468 cells)",impact on normal immortalized cells (MCF10A cells)
YARAAARQARAKNHVIKYLETLLYSQQQLAKYWEAFL [SNX1.3],induced,inhibits the growth,no impact on viability,increased infiltration,decrease,did not block,inhibited migration,inhibited migration,no migration was observed,–,–,–
"CNC(=O)CN1CCC(Oc2cc3c(Nc4cccc(Cl)c4F)ncnc3cc2OC)CC1 [Sapitinib, reference compound]",–,–,–,–,–,–,–,–,–,inhibited cell survival,inhibited cell survival,more effective at inhibiting cell growth in normal cells than in cancer cells
